This passage reports IC50 results from patent US12065445B2, “CDK2 inhibitors and methods of using the same” (Cedilla Therapeutics, Inc., priority 2021, dated 2024).

Assay [1] relates to Kuramochi cells. In words: BrdU Cell Proliferation Assay. Type of assay: cell-based. Conditions: read-out: BrdU - KURAMOCHI.1: IC50. The method in brief: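 Signal is 450 nm absorbance from a peroxidase anti-BrdU ELISA after a 1-hour BrdU label, background-subtracted and normalized to DMSO-treated wells. Kuramochi cells (2,000 per well) had been exposed to compound for 4 days. Dosing used a 10-point dose response in 3-fold steps.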

Assay [2] has as its system Kuramochi cells labeled with mApple-H2B. In words: IncuCyte Cell Proliferation Assay. Type of assay: cell-based. Conditions: 72 h. An outline of the steps: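 GI50 came from dose-response fits of cell-count fold change between 0 and 72 h, normalized to DMSO controls. Counts were fluorescent nuclei from live-cell images over a 10-point, ½ log series starting at 20 μM.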

Bounds are passed on as bounds.

For the molecule `CNC(=O)[C@@H](NC(=O)[C@@H]1CN(C(=O)Cc2cnn(Cc3ccccc3)c2)CC12CN(C(=O)[C@H]1CC1(C)C)C2)[C@@H](C)OCc1ccccc1` [I-373], the IC50 in assay [1] is above 10 µM; in assay [2], above 20 µM.

Regarding `CNC(=O)[C@@H](NC(=O)[C@@H]1CN(C(=O)c2cncs2)CC12CN(C(=O)[C@H]1CC1(C)C)C2)[C@@H](C)OCC12CCC(CC1)CC2` [I-289], the IC50 in assay [1] and in assay [2] was at most 0.5 µM throughout.

Turning to `CC1(C)C[C@@H]1C(=O)N1CC2(CN(C(=O)c3cnn(Cc4ccccc4)c3)C[C@H]2C(=O)NCc2ccc(O)nn2)C1` [I-400], the results for the IC50 in assay [1] and in assay [2] were above 10 µM and above 20 µM, respectively.

For `C[C@@H](OCC1CCCCC1)[C@H](NC(=O)C1CN(C(=O)c2cnn(Cc3ccccc3)c2)CC12CN(C(=O)[C@H]1CC1(C)C)C2)C(=O)N1CCC(F)(F)CC1` (stereo partly drawn) [I-149 mixture], the concentration for half-maximal inhibition (IC50) in assay [1] and in assay [2] was at most 0.5 µM in each case.

For `COC[C@H]1CCCN(C(=O)[C@H](C)NC(=O)[C@@H]2CN(C(=O)c3cncs3)CC23CN(C(=O)[C@H]2CC2(C)C)C3)C1` [I-325], the IC50 was above 10 µM in assay [1] and above 20 µM in assay [2].

`Cc1ccc(CNC(=O)[C@@H]2CN(C(=O)c3cnn(Cc4ccccc4)c3)CC23CN(C(=O)[C@H]2CC2(C)C)C3)nc1` [I-365]: the IC50 in assay [1] is above 10 µM; in assay [2], above 20 µM.

On to `C[C@@H](OCC1CCCCC1)[C@H](NC(=O)[C@@H]1CN(C(=O)c2cnn(C(F)(F)F)c2)CC12CN(C(=O)[C@H]1CC1(C)C)C2)C(=O)N1CCCCC1` [I-115], for which the IC50 in assay [1] was above 10 µM; in assay [2], 5 to 20 µM.

Consider `CC1(C)C[C@@H]1C(=O)N1CC2(CN(C(=O)c3cnn(Cc4ccccc4)c3)C[C@H]2C(=O)N[C@@H]2CCN(C3CC3)C2=O)C1` [I-259], for which the IC50 in assay [1] was above 10 µM; in assay [2], above 20 µM.

With `C[C@@H](OCC1CCCCC1)[C@@H](CO)NC(=O)[C@@H]1CN(C(=O)c2cncs2)CC12CN(C(=O)[C@H]1CC1(C)C)C2` [I-307], the IC50 in assay [1] and in assay [2] was 0.5 to 5 µM in each case.

Take `C[C@@H](OCC1CCCCC1)[C@H](NC(=O)[C@H]1CN(C(=O)c2cnn(Cc3ccccc3)c2)CC12CN(C(=O)[C@H]1CC1(C)C)C2)C(=O)N1CCOCC1` [I-152B]: the IC50 in assay [1] is above 10 µM; in assay [2], 5 to 20 µM.

On to `CNC(=O)C(NC(=O)[C@@H]1CN(C(=O)c2cncs2)CC12CN(C(=O)[C@H]1CC1(C)C)C2)c1ncc(C2CCCCC2)o1` (stereo partly drawn) [I-426], for which the values for the IC50 in assay [1] and in assay [2] were above 10 µM and above 20 µM, respectively.

For the molecule `CNC(=O)[C@@H](NC(=O)[C@@H]1CN(C(=O)c2cnc(C(C)(C)C)s2)CC12CN(C(=O)[C@H]1CC1(C)C)C2)[C@@H](C)OCC1CCCCC1` [I-229A], the IC50 in assay [1] and in assay [2] was 0.5 to 5 µM throughout.

As for `CNC(=O)[C@@H](NC(=O)[C@@H]1CN(C(=O)c2cnn(Cc3ccccc3)c2)CC12CN(C(=O)N(C)C(C)C)C2)[C@@H](C)OCC1CCCCC1` [I-274, (S)-6-(1-benzyl-1H-pyrazole-4-carbonyl)-N8-((2S,3R)-3-(cyclohexylmethoxy)-1-(methylamino)-1-oxobutan-2-yl)-N2-isopropyl-N2-methyl-2,6-diazaspiro[3.4]octane-2,8-dicarboxamide], the IC50 in assay [1] lay within 5 to 10 µM; in assay [2], 5 to 20 µM.

Regarding `CNC(=O)[C@@H](NC(=O)[C@@H]1CN(C(=O)c2sc(Cl)nc2Cl)CC12CN(C(=O)[C@H]1CC1(C)C)C2)[C@@H](C)OCC1CCCCC1` [I-232A], the IC50 in assay [1] and in assay [2] was 0.5 to 5 µM each time.

For the molecule `C[C@@H](OCC1CCCCC1)[C@H](NC(=O)C1CN(C(=O)c2cnn(Cc3ccccc3)c2)CC12CN(C(=O)[C@H]1CC1(C)C)C2)C(=O)N1CC2(CCC2)C1` (stereo partly drawn) [I-107], the IC50 in assay [1] and in assay [2] was at most 0.5 µM in each case.

On to `C[C@@H](OCC1CCCCC1)[C@H](NC(=O)C1CN(C(=O)c2cncs2)CC12CN(C(=O)[C@H]1CC1(C)C)C2)C(=O)N1CCOCC1` (stereo partly drawn) [I-138], for which the IC50 in assay [1] and in assay [2] was at most 0.5 µM throughout.

Consider `CNC(=O)[C@@H](NC(=O)[C@H]1CN(C(=O)c2sc(C)nc2C)CC12CN(C(=O)[C@H]1CC1(C)C)C2)[C@@H](C)OCC1CCCCC1` [I-213B], for which the IC50 was above 10 µM in assay [1] and above 20 µM in assay [2].

Regarding `CNC(=O)[C@@H](NC(=O)[C@H]1CN(C(=O)c2cnc(COC(C)(C)C)s2)CC12CN(C(=O)[C@H]1CC1(C)C)C2)[C@@H](C)OCC1CCCCC1` [I-175B], the IC50 in assay [1] was above 10 µM; in assay [2] it was 5 to 20 µM.

For `C[C@H](OC1CCN(C(=O)[C@@H]2CN(C(=O)c3cnn(Cc4ccccc4)c3)CC23CN(C(=O)[C@H]2CC2(C)C)C3)CC1)c1ccccc1` [I-275], the IC50 was above 10 µM in assay [1] and above 20 µM in assay [2].

Consider `CC1(C)C[C@@H]1C(=O)N1CC2(CN(C(=O)c3cnn(Cc4ccccc4)c3)C[C@H]2C(=O)N[C@H]2C[C@@H]2c2cccc(Cl)c2)C1` [I-140A], for which the IC50 in assay [1] was above 10 µM; in assay [2], 5 to 20 µM.

`COC[C@H]1CCCN(C(=O)[C@@H](NC(=O)[C@@H]2CN(C(=O)c3cncs3)CC23CN(C(=O)[C@H]2CC2(C)C)C3)[C@@H](C)OCc2ccccc2F)C1` [I-321]: the IC50 in assay [1] and in assay [2] was 0.5 to 5 µM each time.

On to `CO[C@H]1COCC[C@@H]1NC(=O)[C@@H]1CN(C(=O)c2cnn(Cc3ccccc3)c2)CC12CN(C(=O)[C@H]1CC1(C)C)C2` [I-131A], for which the IC50 is above 10 µM in assay [1] and above 20 µM in assay [2].

For the molecule `CNC(=O)[C@@H](NC(=O)[C@@H]1CN(C(=O)c2scnc2Cl)CC12CN(C(=O)[C@H]1CC1(C)C)C2)[C@@H](C)OCC1CCCCC1` [I-157A], the 50% inhibitory concentration (IC50) in assay [1] and in assay [2] was 0.5 to 5 µM throughout.

On to `Cc1ccc(CNC(=O)[C@H]2CN(C(=O)c3cnn(Cc4ccccc4)c3)CC23CN(C(=O)[C@H]2CC2(C)C)C3)nn1` [I-381], for which the IC50 in assay [1] is above 10 µM; in assay [2], above 20 µM.

Regarding `C[C@@H](OCC1CCOCC1)[C@@H](COC(F)(F)F)NC(=O)[C@@H]1CN(C(=O)c2cncs2)CC12CN(C(=O)[C@H]1CC1(C)C)C2` [I-428], the IC50 in assay [1] is above 10 µM; in assay [2], above 20 µM.

For the molecule `CNC(=O)[C@@H](NC(=O)[C@H]1CN(C(=O)c2cnn(Cc3ccccc3)c2)CC12CN(C(=O)[C@H]1CC1(C)C)C2)[C@@H](C)OCC(C)C` [I-137B], the IC50 was above 10 µM in assay [1] and above 20 µM in assay [2].

`CO[C@H]1COCC[C@H]1NC(=O)[C@H]1CN(C(=O)c2cnn(Cc3ccccc3)c2)CC12CN(C(=O)[C@H]1CC1(C)C)C2` [I-134B]: the results for the IC50 in assay [1] and in assay [2] were above 10 µM and above 20 µM, respectively.

Regarding `C[C@@H](OCC1CCCCC1)[C@H](NC(=O)C1CN(C(=O)c2cnn(Cc3ccccc3)c2)CC12CN(C(=O)[C@H]1CC1(C)C)C2)C(=O)N1CCCC(CO)C1` (stereo partly drawn) [I-105], the IC50 in assay [1] and in assay [2] was at most 0.5 µM throughout.

On to `CNC(=O)[C@@H](NC(=O)[C@@H]1CN(C(=O)c2cnn(Cc3ccccc3)c2)CC12CN(C(=O)[C@H]1CC1(C)C)C2)[C@@H](C)OCC12CC(C(=O)OC)(C1)C2` [I-299], for which the IC50 in assay [1] is above 10 µM; in assay [2], above 20 µM.

As to `CNC(=O)[C@@H](NC(=O)[C@@H]1CN(C(=O)c2cncs2)CC12CN(C(=O)[C@H]1CC1(C)C)C2)[C@@H](C)OC1CCCCC1` [I-290], the results for the concentration for half-maximal inhibition (IC50) in assay [1] and in assay [2] were above 10 µM and 5 to 20 µM, respectively.

Usually IC50 stands for the concentration at which inhibition is half-maximal.
